Square brackets hold non-standard residues; d marks the D form. Peptide text beside a SMILES is read from it.

One assay has as its system C2C12 Mouse Myoblasts. The assay can be described thus: Glucose utilization (glucose remaining in medium). The format is cell-based. The note with it: peptide 10 μM, 18-22 hours, relative to 0.1% DMSO treated control cells. As to the method:
The effect of the peptides on glucose metabolism can be assessed using an assay of glucose utilization in cultured cells such as mouse myoblasts. Peptides were initially prepared as 10 mM stock in DMSO and used at a final concentration of 10 μM (0.1% DMSO). C2C12 mouse myoblast cell line was purchased from American Type Culture Collection (Manassas, VA). C2C12 cultures were maintained at 37° C. in a humidified atmosphere of 5% CO2/95% air with medium changes every second day. C2C12 cells were grown in DMEM (1 g/L glucose) supplemented with 10% FBS with 100 IU/ml penicillin and 100 μg/ml streptomycin. C2C12 cells were seeded at 7,000 cells per well on 96-well plates and cultured to confluence. Once the cell reached confluence the media was changed to DMEM (1 g/L glucose) supplemented with 2% HS with 100 IU/ml penicillin and 100 μg/ml streptomycin and maintained at 37° C. in a humidified atmosphere of 5% CO2/95% air. 5 days post-induction of differentiation fresh DMEM (1 g/L glucose) supplemented with 2% HS with 100 IU/ml penicillin and 100 μg/ml streptomycin was added to cultures. Cells were maintained at 37° C. in a humidified atmosphere of 5% CO2 and 95% air for 5 hours. After 5 hours test peptides at 10 μM or controls (0.5 mM or 1 mM metformin in 1% DMSO) prepared in fresh differentiation medium were added to cells and the cultures were maintained at 37° C. in a humidified atmosphere of 5% CO2/95% air for 18-22 hours. At the end of the incubation culture media was removed from the cells and the remaining glucose concentration was measured using a Glucose Assay kit (Abcam) according to the manufacturer's instructions, using a Cytation 3 plate reader at 570 nm (BioTek, Winooski, VT). Glucose concentrations in the medium were calculated relative to 0.1% DMSO treated control cells. The relative standard deviation of the result for the 0.1% DMSO treated control was <20%. Metformin was used as a positive control for reduction of glucose levels (increased glucose utilization glucose levels for treatment with metformin (1 mM) treatment were <20% of the 0.1% DMSO treated control value. The results are reported in Table 11.

Assay [1] has as its system A172 human brain glioblastoma cell line. The assay can be described thus: Caspase-Glo 3/7 assay of caspase 3/7 activity in cultured cells. The note with it: peptide 10 μM, 18-20 hours, relative to 0.1% DMSO control. It counts as cell-based. As to the method:
The effect of the peptides on cell death/survival can be assessed using a […] assay in cultured cells. Peptides were dissolved at 10 mM in DMSO as stock solutions for use at a final concentration of 10 μM. […] Caspase-Glo 3/7 Assay Reagent was purchased from Promega (Madison, WI). A172 human brain glioblastoma cell line was purchased from American Type Culture Collection (Manassas, VA). A172 cells were grown in DMEM supplemented with 10% FBS with 100 IU/ml penicillin and 100 μg/ml streptomycin. Cultures were maintained at 37° C. in a humidified atmosphere of 5% CO2/95% air. A172 cells were seeded at 8,000 cells per well on 96-well plates. […] Caspase 3/7 activity was determined using a Caspase-Glo 3/7 Assay kit (Promega) according to the manufacturer's instructions. Luminescence for each sample well on the plate was measured using a Cytation 3 plate reader (BioTek, Winooski, VT). Activity was calculated relative to 0.1% DMSO control.

Turning to `CC[C@H](C)[C@H](NC(=O)[C@H](CC(C)C)NC(=O)[C@H](C)NC(=O)[C@@H](N)CCSC)C(=O)N[C@@H](CC(=O)O)C(=O)N[C@H](C(=O)N[C@@H](CC(C)C)C(=O)N[C@H](C(=O)N[C@@H](CC(C)C)C(=O)N[C@H](C)C(=O)O)C(C)C)[C@@H](C)O` [compound 5] (H-MALIDTLVL[dA]-OH; N-terminus and C-terminus assumed), in the assay on C2C12 Mouse Myoblasts, the “Glucose Utilization (glucose concentration in medium), Percent of Untreated Control” value is on record as 128.8%. The “Caspase 3/7 Activity, Percent of Control Activity” value in assay [1] is reported as 76.2%.
For `CC[C@H](C)[C@H](NC(=O)[C@H](Cc1c[nH]c2ccccc12)NC(=O)[C@H](CCC(N)=O)NC(=O)[C@@H](N)CCCNC(=N)N)C(=O)N[C@@H](CC(C)C)C(=O)N[C@@H](Cc1c[nH]cn1)C(=O)N[C@@H](CC(N)=O)C(=O)N[C@H](C)C(=O)NCC(=O)N[C@@H](CCSC)C(=O)N[C@@H](CO)C(=O)N[C@@H](Cc1ccccc1)C(=O)N[C@@H](Cc1ccccc1)C(=O)N[C@@H](CS)C(=O)O` [compound 14] (H-RQWILHN[dA]GMSFFC-OH; N-terminus and C-terminus assumed), in that order: 115.7% and 107.4%.
The corresponding values for `CC[C@H](C)[C@H](NC(=O)[C@H](CC(C)C)NC(=O)[C@H](C)NC(=O)[C@@H](N)CCSC)C(=O)N[C@@H](CC(C)C)C(=O)N[C@H](C(=O)N[C@@H](CC(C)C)C(=O)N[C@H](C(=O)N[C@@H](CC(C)C)C(=O)N[C@H](C)C(=O)O)C(C)C)[C@@H](C)O` [compound 4] (H-MALILTLVL[dA]-OH; N-terminus and C-terminus assumed) are 117.2% and 96.4%.
Turning to `CSCC[C@H](NC(=O)[C@H](CCCNC(=N)N)NC(=O)[C@H](CCCNC(=N)N)NC(=O)[C@@H](N)CCCNC(=N)N)C(=O)N[C@@H](Cc1ccccc1)C(=O)N[C@@H](CO)C(=O)N[C@@H](CS)C(=O)N[C@@H](Cc1ccc(O)cc1)C(=O)N[C@H](C)C(=O)N[C@@H](Cc1ccc(O)cc1)C(=O)O` [compound 19] (H-RRRMFSCY[dA]Y-OH; N-terminus and C-terminus assumed), the “Glucose Utilization (glucose concentration in medium), Percent of Untreated Control” value in the assay with C2C12 Mouse Myoblasts was found to be 115.7%. Also, the “Caspase 3/7 Activity, Percent of Control Activity” value in assay [1] is reported as 93.7%.

For the origin of these results see patent publication US20240034753A1, “THERAPEUTIC PEPTIDES” (COHBAR, INC., priority 2020, published 2024).
